# According to PubChem BioAssay (NCI):
#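 Cells were grown in 96-well plates and exposed to each compound for 48 hours at five concentrations; endpoints were interpolated linearly between bracketing concentrations, or set to the highest concentration if not reached. GI50 = concentration required for 50% inhibition of growth. TGI: concentration producing complete growth inhibition.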
# What was measured:
# Assay in all cases: NCI anticancer screen, dose series, 48 h
# OVCAR-4 ovarian = tested on: OVCAR-4 ovarian
# RXF 393 renal = tested on: RXF 393 renal
# SR leukemia = tested on: SR leukemia
# LOX IMVI melanoma = tested on: LOX IMVI melanoma
# SF-268 CNS = tested on: SF-268 CNS
# HCT-116 colon = tested on: HCT-116 colon
# A549 NSCLC = tested on: A549 NSCLC
# MOLT-4 leukemia = tested on: MOLT-4 leukemia
# SNB-19 CNS = tested on: SNB-19 CNS
# NCI-H522 lung = tested on: NCI-H522 lung
# 786-0 renal = tested on: 786-0 renal
SMILES,TGI (OVCAR-4 ovarian) [µM],TGI (RXF 393 renal) [µM],TGI (SR leukemia) [µM],TGI (LOX IMVI melanoma) [µM],TGI (SF-268 CNS) [µM],TGI (HCT-116 colon) [µM],TGI (A549 NSCLC) [µM],TGI (MOLT-4 leukemia) [µM],TGI (SNB-19 CNS) [µM],TGI (NCI-H522 lung) [µM],TGI (786-0 renal) [µM],GI50 (OVCAR-4 ovarian) [µM],GI50 (RXF 393 renal) [µM],GI50 (SR leukemia) [µM],GI50 (SNB-19 CNS) [µM],GI50 (LOX IMVI melanoma) [µM],GI50 (SF-268 CNS) [µM],GI50 (HCT-116 colon) [µM],GI50 (A549 NSCLC) [µM],GI50 (MOLT-4 leukemia) [µM]
COc1ccc(C2c3cc4c(cc3OC(O)(CO)C2C(=O)O)OCO4)cc1 (stereo unspecified) (tested in a mixture with another compound),> 100,34.7,56.2,30.1,94.3,33.1,> 100,57.8,–,–,–,–,–,–,–,–,–,–,–,–
CC(C)C1OC(=O)/C=C/C=C/C=C/C=C/C=C/CC(O)C(C)C(O)CC(O)CC(O)CC(O)CC(O)CC(O)CC(O)/C=C/C1C (stereo unspecified),> 100,–,> 100,–,> 100,–,> 100,> 100,> 100,> 100,–,–,–,–,–,–,–,–,–,–
CSCCC(NC(=O)OCc1ccccc1)P(=O)(O)c1ccccc1 (stereo unspecified),> 100,–,> 100,> 100,–,> 100,> 100,> 100,> 100,> 100,–,–,–,–,–,–,–,–,–,–
O=S(=O)(O)c1cc(N=[N+]([O-])c2cc(S(=O)(=O)O)c3ccccc3c2)cc2ccccc12,38.2,> 100,> 100,60.6,> 100,> 100,> 100,–,> 100,65.9,> 100,–,–,–,–,–,–,–,–,–
Nc1ccc(-c2nc3cc(F)ccc3s2)cc1CO,> 100,34.9,–,> 100,68.8,> 100,> 100,> 100,> 90.6,> 100,> 100,–,–,–,–,–,–,–,–,–
CC(=O)Oc1ccc(CO)cc1OC(C)=O,> 100,> 100,> 100,> 100,> 100,> 100,> 100,> 100,> 100,> 100,> 100,–,–,–,–,–,–,–,–,–
COc1ccc(C(=O)N(C(=O)N2CCN(c3ccccc3)CC2)S(=O)(=O)c2ccccc2)cc1,> 100,–,42.8,38,> 100,42.1,88.8,46.5,74.9,33.3,90.5,–,–,–,–,–,–,–,–,–
COC(OC)C1OC(CO)C(n2cc(F)c(=O)[nH]c2=O)C1O (stereo unspecified),> 100,> 100,–,> 100,> 100,> 100,> 100,> 100,> 100,> 100,–,–,–,–,–,–,–,–,–,–
Cc1cnoc1NS(=O)(=O)c1ccc(Nc2nnc(/C=C/c3c(O)ccc4ccccc34)c(=O)n2N)cc1,> 100,80.2,55.6,53.9,> 100,55.9,> 100,> 100,> 100,–,77.1,–,–,–,–,–,–,–,–,–
COC1CC(CC2CCC(C)C(C(C)C(=O)O)O2)OC2(OC(C)(C3CCC(C)(C4OC(C5OC(O)(CO)C(C)CC5C)CC4C)O3)CC2C)C1C (stereo unspecified),53.1,1.15,1.54,9.81,36.5,15.6,21.8,6.13,5.67,0.591,30.5,–,–,–,–,–,–,–,–,–
COC(=S)OC1CC(n2cnc3c(N)ncnc32)OC1CO[Si](C)(C)C(C)(C)C (stereo unspecified),44,25.9,> 100,> 100,–,31.3,–,> 100,> 100,–,–,–,–,–,–,–,–,–,–,–
COc1cc2c(cc1C)NC(=O)/C2=C/c1c(Cl)n(-c2ccccc2)c2ccccc12,–,38.5,32.9,27.8,> 100,61.1,> 100,33.8,> 100,32.2,43.3,–,–,–,–,–,–,–,–,–
NC(=S)N1N=C(c2ccccc2O)CC1c1ccccc1 (stereo unspecified),67.1,41.6,–,46.2,80.6,28.1,84.6,78.7,> 100,18.8,60,–,–,–,–,–,–,–,–,–
CCCN1C(=O)CSC1=Nc1ccc2cc3ccc(N=C4SCC(=O)N4CCC)cc3nc2c1,> 100,> 100,> 100,> 100,> 100,34.8,> 100,> 100,> 100,–,0.0603,45.8,75.8,98.2,95.4,> 100,35.5,14.3,> 100,> 100
COc1cc2c(cc1OCCCCCCCCN1C(=O)c3cccc4cccc(c34)C1=O)N=C[C@@H]1CCCN1C2=O,7.41,29.7,21.7,25.5,58.5,> 100,> 100,9.42,> 100,39.9,> 100,–,–,–,–,–,–,–,–,–
N#Cc1c(N)nc2c(c1-c1ccc(Br)cc1)CSc1ccccc1-2,> 100,73.8,> 100,> 100,> 100,> 100,> 100,> 100,> 100,–,> 100,–,–,–,–,–,–,–,–,–
